Measurements from US9365583B2, “Substituted pyrazoles and uses thereof” (Genentech, Inc., priority 2013, dated 2016).
pKi: −log10 of the molar value.

biological target: T1, N-terminally GST-tagged DLK (catalytic domain amino acid 1-520) (Homo sapiens, UniProt Q12852); assay: DLK TR-FRET inhibition assay; type: biochemical; details: 5 nM GST-DLK, 40 nM HIS-MKK4 K131M substrate, 30 μM ATP, 60 minutes at ambient temperature
T1 construct: N-terminally GST-tagged DLK (catalytic domain amino acid 1-520); purchased Carna Bioscience
T1 sequence (Q12852 1-520): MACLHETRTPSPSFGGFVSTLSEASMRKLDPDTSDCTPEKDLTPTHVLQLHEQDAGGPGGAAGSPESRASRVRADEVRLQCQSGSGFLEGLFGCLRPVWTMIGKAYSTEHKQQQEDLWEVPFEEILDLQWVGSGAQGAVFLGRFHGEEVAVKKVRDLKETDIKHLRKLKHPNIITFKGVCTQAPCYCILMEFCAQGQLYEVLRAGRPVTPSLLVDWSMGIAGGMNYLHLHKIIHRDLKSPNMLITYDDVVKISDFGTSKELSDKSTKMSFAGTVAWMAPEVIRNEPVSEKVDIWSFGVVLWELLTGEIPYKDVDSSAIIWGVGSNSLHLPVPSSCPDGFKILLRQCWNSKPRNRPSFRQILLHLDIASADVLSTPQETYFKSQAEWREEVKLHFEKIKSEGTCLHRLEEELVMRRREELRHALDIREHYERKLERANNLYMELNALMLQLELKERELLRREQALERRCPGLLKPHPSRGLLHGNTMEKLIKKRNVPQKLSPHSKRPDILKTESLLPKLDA
Experimental: DLK TR-FRET inhibition assay: DLK kinase reactions (20 μL) containing 5 nM N-terminally GST-tagged DLK (catalytic domain amino acid 1-520) (Carna Bioscience), 40 nM N-terminally HIS-tagged MKK4 K131M substrate, and 30 μM ATP in kinase reaction buffer (50 mM HEPES, pH 7.5, 0.01% Triton X-100, 0.01% Bovine γ-Globulins, 2 mM DTT, 10 mM MgCl2 and 1 mM EGTA), and testing compound 1:3 serial diluted starting at 20 uM were incubated at ambient temperature for 60 minutes in 384 well OptiPlate (Perkin Elmer). To quench kinase reactions and detect phosphorylated MKK4, 15 μL of TR-FRET antibody mixture containing 2 nM anti-phosphorylated MKK4 labeled with Europium cryptate (Cisbio) and 23 nM anti-HIS labeled with D2 (Cisbio) in detection buffer (25 mM Tris pH 7.5, 100 mM NaCl, 100 mM EDTA, 0.01% Tween-20, and 200 mM KF) was added to the reaction mixture. The detection mixture was incubated for 3 hours at ambient temperature and the TR-FRET was detected with an EnVision multilabel plate reader (Perkin-Elmer) using the LANCE/DELFIA Dual Enh label from Perkin-Elmer (excitation filter: UV2 (TRF) 320 and emission filters: APC 665 and Europium 615).

Compound | pKi
CC(C)n1nc(-c2cnc(N)c(OC(F)(F)F)c2)cc1[C@H]1[C@@H]2C[C@H](N(C)C3COC3)C[C@@H]21 [compound 47, 5-(1-isopropyl-5-((1R,3r,5S,6r)-3-(methyl(oxetan-3-yl)amino)bicyclo[3.1.0]hexan-6-yl)-1H-pyrazol-3-yl)-3-(trifluoromethoxy) pyridin-2-amine] | 8.39
Nc1ncc(-c2cc([C@H]3[C@@H]4C[C@@H](N5CCOCC5)C[C@@H]43)n(CC3CCC3)n2)cc1OC(F)F [compound 128, 5-(1-(cyclobutylmethyl)-5-((1R, 3s,5S,6r)-3-morpholinobicyclo [3.1.0]hexan-6-yl)-1H-pyrazol-3-yl)-3-(difluoromethoxy)pyridin-2-amine] | 8.30
CC(C)n1nc(-c2cnc(N)c(C(F)(F)F)c2)cc1[C@H]1[C@@H]2C[C@H](N3CCOC[C@@H]3C)C[C@@H]21 [compound 98, 5-(1-isopropyl-5-((1R,3r,5S,6S)-3-((S)-3-methylmorpholino)bicyclo[3.1.0]hexan-6-yl)-1H-pyrazol-3-yl)-3-(trifluoromethyl) pyridin-2-amine] | 8.31
CC(C)n1nc(-c2cnc(N)c(C(=O)N3CCCC3)c2)cc1[C@H]1[C@@H]2C[C@@H](N3CC(F)C3)C[C@@H]21 [compound 106, (2-amino-5-(5-((1R,3s,5S,6r)-3-(3-fluoroazetidin-1-yl)bicyclo [3.1.0]hexan-6-yl)-1-isopropyl-1H-pyrazol-3-yl)pyridin-3-yl) (pyrrolidin-1-yl)methanone] | < 6.49
CC(C)n1nc(-c2cnc(N)c(C(F)(F)F)c2)cc1[C@H]1[C@@H]2CC(C#N)C[C@@H]21 (single isomer, unassigned) [compound 190] | 8.32
COCCN(C)[C@H]1C[C@@H]2[C@H](C1)[C@H]2c1cc(-c2cnc(N)c(C(F)(F)F)c2)nn1C(C)C [compound 284, 5-(1-isopropyl-5-((1R,3r,5S,6r)-3-((2-methoxyethyl)(methyl)amino)bicyclo[3.l.0]hexan-6-yl)-1H-pyrazol-3-yl)-3-(trifluoromethyl) pyridin-2-amine] | 8.24
CC(C)n1nc(-c2cnc(N)c(C(F)(F)F)c2)cc1[C@H]1[C@@H]2C[C@@H](N3CCN(C4COC4)CC3)C[C@@H]21 [compound 117, 5-(1-isopropyl-5-((1R,3s,5S,6r)-3-(4-(oxetan-3-yl)piperazin-1-yl)bicyclo[3.1.0]hexan-6-yl)-1H-pyrazol-3-yl)-3-(trifluoromethyl) pyridin-2-amine] | 8.28
CC(C)n1nc(-c2cnc(N)c(C(F)(F)F)c2)cc1[C@H]1[C@@H]2C[C@@H](N3CC4(COC4)C3)C[C@@H]21 [compound 51, 5-(5-((1R,3s,5S,6r)-3-(2-oxa-6-azaspiro[3.3]heptan-6-yl)bicyclo [3.1.0]hexan-6-yl)-1-isopropyl-1H-pyrazol-3-yl)-3-(trifluoro-methyl)pyridin-2-amine] | 8.45
COCCN1CC[C@@]12C[C@@H]1[C@H](C2)[C@H]1c1cc(-c2cnc(N)c(OC(F)(F)F)c2)nn1C(C)C [compound 146, 5-(1-isopropyl-5-((1′R,2r,5′S,6′r)-1-(2-methoxyethyl)spiro[azetidine-2,3′-bicyclo[3.1.0]hexan]-6-yl)-1H-pyrazol-3-yl)-3-(trifluoro-methoxy)pyridin-2-amine] | 8.37
CC(C)n1nc(-c2cnc(N)c(CC(F)(F)F)c2)cc1[C@H]1[C@@H]2C[C@@H](N3CCOCC3)C[C@@H]21 [compound 281, 5-(1-isopropyl-5-((1R,3s,5S,6r)-3-morpholinobicyclo[3.1.0]hexan-6-yl)-1H-pyrazol-3-yl)-3-(2,2,2-trifluoroethyl)pyridin-2-amine] | 7.74
COCCN(C)[C@@H]1C[C@@H]2[C@H](C1)[C@H]2c1cc(-c2cnc(N)c(C(F)(F)F)c2)nn1C(C)C [compound 291, 5-(1-isopropyl-5-((1R,3s,5S,6r)-3-((2-methoxyethyl)(methyl)amino)bicyclo[3.1.0]hexan-6-yl)-1H-pyrazol-3-yl)-3-(trifluoromethyl) pyridin-2-amine] | 8.33

Now those with a higher pKi, led by results:

pKi | Compound
8.54 | COC1CCN([C@H]2C[C@@H]3[C@H](C2)[C@H]3c2cc(-c3cnc(N)c(OC(F)F)c3)nn2C(C)C)CC1 [compound 247, 3-(difluoromethoxy)-5-(1-isopropyl-5-((1R,3r,5S,6r)-3-(4-methoxypiperidin-1-yl)bicyclo[3.1.0]hexan-6-yl)-1H-pyrazol-3-yl) pyridin-2-amine]
8.59 | CO[C@@H]1CCN([C@@H]2C[C@@H]3[C@H](C2)[C@H]3c2cc(-c3cnc(N)c(C(F)(F)F)c3)nn2C(C)C)C1 [compound 192, 5-(1-isopropyl-5-((1R,3s,5S,6R)-3-((R)-3-methoxypyrrolidin-1-yl)bicyclo[3.1.0]hexan-6-yl)-1H-pyrazol-3-yl)-3-(trifluoromethyl) pyridin-2-amine]
8.60 | COCCN1CC[C@@]12C[C@@H]1[C@H](C2)[C@H]1c1cc(-c2cnc(N)c(C(F)(F)F)c2)nn1C(C)C [compound 161, 5-(1-isopropyl-5-((1′R,2r,5′S,6′r)-1-(2-methoxyethyl)spiro [azetidine-2,3′-bicyclo[3,1.0]hexan]-6′-yl)-1H-pyrazol-3-yl)-3-(trifluoro-methyl)pyridin-2-amine]
8.69 | COC1CN([C@H]2C[C@@H]3[C@H](C2)[C@H]3c2cc(-c3cnc(N)c(OC(F)(F)F)c3)nn2C(C)C)C1 [compound 39, 5-(1-isopropyl-5-((1R,3r,5S,6r)-3-(3-methoxyazetidin-1-yl)bicyclo[3.1.0]hexan-6-yl)-1H-pyrazol-3-yl)-3-(trifluoromethoxy) pyridin-2-amine]
8.82 | CC(C)n1nc(-c2cnc(N)c(C(F)(F)F)c2)cc1[C@H]1[C@@H]2C[C@H](N3CC(F)C3)C[C@@H]21 [compound 36, 5-(5-((1R,3r,5S,6r)-3-(3-fluoro-azetidin-1-yl)bicyclo[3.1.0]hexan-6-yl)-1-isopropyl-1H-pyrazol-3-yl)-3-(trifluoromethyl)pyridin-2-amine]
8.89 | Nc1ncc(-c2cc([C@H]3[C@@H]4C[C@H](N5CCOCC5)C[C@@H]43)n(CC3CC3)n2)cc1C(F)(F)F [compound 273, 5-(1-(cyclopropylmethyl)-5-((1R,3r,5S,6r)-3-morpholinobicyclo [3.1.0]hexan-6-yl)-1H-pyrazol-3-yl)-3-(trifluoromethyl)pyridin-2-amine]
8.92 | CC(C)n1nc(-c2cnc(N)c(OC(F)(F)F)c2)cc1[C@H]1[C@@H]2C[C@@H](N3CCOCC3)C[C@@H]21 [compound 68, 5-(1-isopropyl-5-((1R,3s,5S,6r)-3-morpholinobicyclo[3.1.0]hexan-6-yl)-1H-pyrazol-3-yl)-3-(trifluoromethoxy)pyridin-2-amine]
8.96 | Nc1ncc(-c2cc([C@H]3[C@@H]4C[C@H](N5CCCOCC5)C[C@@H]43)n(CC(F)F)n2)cc1OC(F)(F)F [compound 256, 5-(5-((1R,3r,5S,6r)-3-(1,4-oxazepan-4-yl)bicyclo[3.1.0]hexan-6-yl)-1-(2,2-difluoroethyl)-1H-pyrazol-3-yl)-3-(trifluoromethoxy) pyridin-2-amine]
9.01 | CO[C@H]1CCN([C@H]2C[C@@H]3[C@H](C2)[C@H]3c2cc(-c3cnc(N)c(OC(F)(F)F)c3)nn2C(C)C)C1 [compound 23, 5-(1-isopropyl-5-((1R,3r,5S,6S)-3-((S)-3-methoxypyrrolidin-1-yl)bicyclo[3.1.0]hexan-6-yl)-1H-pyrazol-3-yl)-3-(trifluoro-methoxy)pyridin-2-amine]
9.19 | CC(C)n1nc(-c2cnc(N)c(OC(F)F)c2)cc1[C@H]1[C@@H]2C[C@@H](N3CCCOCC3)C[C@@H]21 [compound 87, 5-(5-((1R,3s,5S,6r)-3-(1,4-oxazepan-4-yl)bicyclo[3.1.0]hexan-6-yl)-1-isopropyl-1H-pyrazol-3-yl)-3-(difluoromethoxy)pyridin-2-amine]
9.92 | CC(C)n1nc(-c2cnc(N)c(OC(F)F)c2)cc1[C@H]1[C@@H]2C[C@H](N3C[C@@H]4C[C@H]3CO4)C[C@@H]21 [compound 83, 5-(5-((1R,3r,5S,6S)-3-((1S,4S)-2-oxa-5-azabicyclo[2.2.1]heptan-5-yl)bicyclo[3.1.0]hexan-6-yl)-1-isopropyl-1H-pyrazol-3-yl)-3-(difluoromethoxy)pyridin-2-amine]
